Patent publication US20180207094A1, “IMPROVED TOPICAL KETOPROFEN FORMULATIONS” (Elliptical Therapeutics, LLC, priority 2015, published 2018)

Assays:
[1] = reported; cited from earlier work
New Zealand rabbits = details: rabbit, in vivo

## C[C@@H](C(=O)O)c1cccc(C(=O)c2ccccc2)c1 (single isomer, unassigned) [R-enantiomer]
[1]
  anti-inflammatory and antipyretic activities: little or no

## C[C@H](C(=O)O)c1cccc(C(=O)c2ccccc2)c1 (single isomer, unassigned) [S-enantiomer]
[1]
  potency relative to the racemate: approximately twice as potent as the racemate

## CCCCCCCCCCCCOS(=O)(=O)[O-].[Na+] [SDS 5%, sodium dodecyl sulfate]
New Zealand rabbits
  Overall Edema Score: 0.60
  Overall Erythema Score: 0.20
